{"source": "PubChem BioAssay AID2060895", "about": "(Molecular Pharmacology Branch, DTP, NCI, 2025)", "tested_on": "PDC 899932-113-R3-J6 complex spheroid viability", "assay": "Anticancer human tumor 899932-113-R3-J6-PDC patient-derived melanoma cell line growth inhibition [RAS]", "conditions": "for pIC50: curve of first compound; for viability, T/C: stronger effect = lower value", "in_short": "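Tumour cells grown as complex spheroids with HUVEC endothelial cells and mesenchymal stem cells, treated with RAS pathway inhibitor combinations. Each agent spans half-log steps from near clinical Cmax, or 10 microM where Cmax is unknown.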", "note": "pIC50: −log10 of the molar value.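 For viability, T/C in this document: spheroids exposed to agents for seven days before readout; 100% = DMSO vehicle control wells.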"}
{"smiles": "CC(C)n1nc(-c2ccc3oc(N)nc3c2)c2c(N)ncnc21", "note": "+ C=CC(=O)N1CCN(c2nc(OCC3CCCN3C)nc3c(F)c(-c4nc(N)cc(C)c4C(F)(F)F)c(Cl)cc23)C(C)C1", "values": [{"measurement": "pIC50", "setting": "second compound 0.00316 µM", "result": 7.04}, {"measurement": "pIC50", "setting": "second compound 0.01 µM", "result": "< 7.00"}, {"measurement": "pIC50", "setting": "second compound 0.0316 µM", "result": "< 7.00"}, {"measurement": "pIC50", "setting": "second compound 0.1 µM", "result": "< 7.00"}, {"measurement": "pIC50", "setting": "second compound 0.316 µM", "result": "< 7.00"}, {"measurement": "pIC50", "setting": "second compound 1 µM", "result": "< 7.00"}, {"measurement": "viability, T/C", "setting": "second compound 0.00316 µM, first compound 0.000316 µM", "result": 109, "unit": "%"}, {"measurement": "viability, T/C", "setting": "second compound 0.00316 µM, first compound 0.001 µM", "result": 105, "unit": "%"}, {"measurement": "viability, T/C", "setting": "second compound 0.00316 µM, first compound 0.00316 µM", "result": 114, "unit": "%"}, {"measurement": "viability, T/C", "setting": "second compound 0.00316 µM, first compound 0.01 µM", "result": 105, "unit": "%"}, {"measurement": "viability, T/C", "setting": "second compound 0.00316 µM, first compound 0.0316 µM", "result": 79.6, "unit": "%"}, {"measurement": "viability, T/C", "setting": "second compound 0.00316 µM, first compound 0.1 µM", "result": 47.3, "unit": "%"}, {"measurement": "viability, T/C", "setting": "second compound 0.01 µM, first compound 0.000316 µM", "result": 113, "unit": "%"}, {"measurement": "viability, T/C", "setting": "second compound 0.01 µM, first compound 0.001 µM", "result": 116, "unit": "%"}, {"measurement": "viability, T/C", "setting": "second compound 0.01 µM, first compound 0.00316 µM", "result": 112, "unit": "%"}, {"measurement": "viability, T/C", "setting": "second compound 0.01 µM, first compound 0.01 µM", "result": 115, "unit": "%"}, {"measurement": "viability, T/C", "setting": "second compound 0.01 µM, first compound 0.0316 µM", "result": 74.5, "unit": "%"}, {"measurement": "viability, T/C", "setting": "second compound 0.01 µM, first compound 0.1 µM", "result": 52.6, "unit": "%"}, {"measurement": "viability, T/C", "setting": "second compound 0.0316 µM, first compound 0.000316 µM", "result": 113, "unit": "%"}, {"measurement": "viability, T/C", "setting": "second compound 0.0316 µM, first compound 0.001 µM", "result": 111, "unit": "%"}, {"measurement": "viability, T/C", "setting": "second compound 0.0316 µM, first compound 0.00316 µM", "result": 102, "unit": "%"}, {"measurement": "viability, T/C", "setting": "second compound 0.0316 µM, first compound 0.01 µM", "result": 97.7, "unit": "%"}, {"measurement": "viability, T/C", "setting": "second compound 0.0316 µM, first compound 0.0316 µM", "result": 75.7, "unit": "%"}, {"measurement": "viability, T/C", "setting": "second compound 0.0316 µM, first compound 0.1 µM", "result": 54.1, "unit": "%"}, {"measurement": "viability, T/C", "setting": "second compound 0.1 µM, first compound 0.000316 µM", "result": 110, "unit": "%"}, {"measurement": "viability, T/C", "setting": "second compound 0.1 µM, first compound 0.001 µM", "result": 121, "unit": "%"}, {"measurement": "viability, T/C", "setting": "second compound 0.1 µM, first compound 0.00316 µM", "result": 106, "unit": "%"}, {"measurement": "viability, T/C", "setting": "second compound 0.1 µM, first compound 0.01 µM", "result": 92.2, "unit": "%"}, {"measurement": "viability, T/C", "setting": "second compound 0.1 µM, first compound 0.0316 µM", "result": 83.5, "unit": "%"}, {"measurement": "viability, T/C", "setting": "second compound 0.1 µM, first compound 0.1 µM", "result": 52.3, "unit": "%"}, {"measurement": "viability, T/C", "setting": "second compound 0.316 µM, first compound 0.000316 µM", "result": 98.9, "unit": "%"}, {"measurement": "viability, T/C", "setting": "second compound 0.316 µM, first compound 0.001 µM", "result": 104, "unit": "%"}, {"measurement": "viability, T/C", "setting": "second compound 0.316 µM, first compound 0.00316 µM", "result": 111, "unit": "%"}, {"measurement": "viability, T/C", "setting": "second compound 0.316 µM, first compound 0.01 µM", "result": 104, "unit": "%"}, {"measurement": "viability, T/C", "setting": "second compound 0.316 µM, first compound 0.0316 µM", "result": 85.5, "unit": "%"}, {"measurement": "viability, T/C", "setting": "second compound 0.316 µM, first compound 0.1 µM", "result": 50, "unit": "%"}, {"measurement": "viability, T/C", "setting": "second compound 1 µM, first compound 0.000316 µM", "result": 108, "unit": "%"}, {"measurement": "viability, T/C", "setting": "second compound 1 µM, first compound 0.001 µM", "result": 108, "unit": "%"}, {"measurement": "viability, T/C", "setting": "second compound 1 µM, first compound 0.00316 µM", "result": 109, "unit": "%"}, {"measurement": "viability, T/C", "setting": "second compound 1 µM, first compound 0.01 µM", "result": 100, "unit": "%"}, {"measurement": "viability, T/C", "setting": "second compound 1 µM, first compound 0.0316 µM", "result": 78.9, "unit": "%"}, {"measurement": "viability, T/C", "setting": "second compound 1 µM, first compound 0.1 µM", "result": 54.8, "unit": "%"}]}
{"smiles": "O=C(c1ccc(F)c(F)c1Nc1ccc(I)cc1F)N1CC(O)([C@@H]2CCCCN2)C1", "note": "+ CCn1c(-c2cccnc2C(C)OC)c2c3cc(ccc31)N1CCOC(CC(NC(=O)C(C(C)C)N(C)C(=O)C3(F)CCN(C(=O)C#CC(C)(C)N(C)C)CC3)C(=O)N3CCCC(N3)C(=O)OCC(C)(C)C2)C1", "values": [{"measurement": "pIC50", "setting": "second compound 0.000949 µM", "result": 8.09}, {"measurement": "pIC50", "setting": "second compound 0.003 µM", "result": 8.12}, {"measurement": "pIC50", "setting": "second compound 0.00949 µM", "result": 8.08}, {"measurement": "pIC50", "setting": "second compound 0.03 µM", "result": 8.17}, {"measurement": "pIC50", "setting": "second compound 0.0949 µM", "result": 8.16}, {"measurement": "pIC50", "setting": "second compound 0.3 µM", "result": 8.33}, {"measurement": "viability, T/C", "setting": "second compound 0.000949 µM, first compound 0.00316 µM", "result": 72.5, "unit": "%"}, {"measurement": "viability, T/C", "setting": "second compound 0.000949 µM, first compound 0.01 µM", "result": 45.1, "unit": "%"}, {"measurement": "viability, T/C", "setting": "second compound 0.000949 µM, first compound 0.0316 µM", "result": 4.63, "unit": "%"}, {"measurement": "viability, T/C", "setting": "second compound 0.000949 µM, first compound 0.1 µM", "result": 3.49, "unit": "%"}, {"measurement": "viability, T/C", "setting": "second compound 0.000949 µM, first compound 0.316 µM", "result": 1.64, "unit": "%"}, {"measurement": "viability, T/C", "setting": "second compound 0.000949 µM, first compound 1 µM", "result": 0.82, "unit": "%"}, {"measurement": "viability, T/C", "setting": "second compound 0.003 µM, first compound 0.00316 µM", "result": 72.3, "unit": "%"}, {"measurement": "viability, T/C", "setting": "second compound 0.003 µM, first compound 0.01 µM", "result": 43.3, "unit": "%"}, {"measurement": "viability, T/C", "setting": "second compound 0.003 µM, first compound 0.0316 µM", "result": 4.76, "unit": "%"}, {"measurement": "viability, T/C", "setting": "second compound 0.003 µM, first compound 0.1 µM", "result": 3.09, "unit": "%"}, {"measurement": "viability, T/C", "setting": "second compound 0.003 µM, first compound 0.316 µM", "result": 1.48, "unit": "%"}, {"measurement": "viability, T/C", "setting": "second compound 0.003 µM, first compound 1 µM", "result": 0.53, "unit": "%"}, {"measurement": "viability, T/C", "setting": "second compound 0.00949 µM, first compound 0.00316 µM", "result": 72.4, "unit": "%"}, {"measurement": "viability, T/C", "setting": "second compound 0.00949 µM, first compound 0.01 µM", "result": 45.5, "unit": "%"}, {"measurement": "viability, T/C", "setting": "second compound 0.00949 µM, first compound 0.0316 µM", "result": 5.4, "unit": "%"}, {"measurement": "viability, T/C", "setting": "second compound 0.00949 µM, first compound 0.1 µM", "result": 3.03, "unit": "%"}, {"measurement": "viability, T/C", "setting": "second compound 0.00949 µM, first compound 0.316 µM", "result": 1.85, "unit": "%"}, {"measurement": "viability, T/C", "setting": "second compound 0.00949 µM, first compound 1 µM", "result": 0.35, "unit": "%"}, {"measurement": "viability, T/C", "setting": "second compound 0.03 µM, first compound 0.00316 µM", "result": 71.6, "unit": "%"}, {"measurement": "viability, T/C", "setting": "second compound 0.03 µM, first compound 0.01 µM", "result": 38.9, "unit": "%"}, {"measurement": "viability, T/C", "setting": "second compound 0.03 µM, first compound 0.0316 µM", "result": 5.26, "unit": "%"}, {"measurement": "viability, T/C", "setting": "second compound 0.03 µM, first compound 0.1 µM", "result": 3.43, "unit": "%"}, {"measurement": "viability, T/C", "setting": "second compound 0.03 µM, first compound 0.316 µM", "result": 1.55, "unit": "%"}, {"measurement": "viability, T/C", "setting": "second compound 0.03 µM, first compound 1 µM", "result": 0.48, "unit": "%"}, {"measurement": "viability, T/C", "setting": "second compound 0.0949 µM, first compound 0.00316 µM", "result": 73, "unit": "%"}, {"measurement": "viability, T/C", "setting": "second compound 0.0949 µM, first compound 0.01 µM", "result": 38.8, "unit": "%"}, {"measurement": "viability, T/C", "setting": "second compound 0.0949 µM, first compound 0.0316 µM", "result": 4.74, "unit": "%"}, {"measurement": "viability, T/C", "setting": "second compound 0.0949 µM, first compound 0.1 µM", "result": 2.54, "unit": "%"}, {"measurement": "viability, T/C", "setting": "second compound 0.0949 µM, first compound 0.316 µM", "result": 1.48, "unit": "%"}, {"measurement": "viability, T/C", "setting": "second compound 0.0949 µM, first compound 1 µM", "result": 0.61, "unit": "%"}, {"measurement": "viability, T/C", "setting": "second compound 0.3 µM, first compound 0.00316 µM", "result": 60.2, "unit": "%"}, {"measurement": "viability, T/C", "setting": "second compound 0.3 µM, first compound 0.01 µM", "result": 29.6, "unit": "%"}, {"measurement": "viability, T/C", "setting": "second compound 0.3 µM, first compound 0.0316 µM", "result": 3.92, "unit": "%"}, {"measurement": "viability, T/C", "setting": "second compound 0.3 µM, first compound 0.1 µM", "result": 2.9, "unit": "%"}, {"measurement": "viability, T/C", "setting": "second compound 0.3 µM, first compound 0.316 µM", "result": 0.95, "unit": "%"}, {"measurement": "viability, T/C", "setting": "second compound 0.3 µM, first compound 1 µM", "result": 0.52, "unit": "%"}]}
